# Data from US10150767B2, “Therapeutic compounds and uses thereof” (priority 2014, dated 2018).
# Target: TAF1-BD2 (Homo sapiens, UniProt P21675)
# Assay: TAF1-BD2 TR-FRET binding assay
# Conditions: Assay: TAF-1; biotinylated probe compound 1000, TR-FRET
# Protocol: Specifically, in a 384 well ProxiPlate TAF1-BD2 (6 nM final) was combined with biotin-ligand (50 nM final) in 50 mM HEPES (pH 7.5), 50 mM NaCl, 1 mM TCEP, 0.01% (w/v) BSA, and 0.008% (w/v) Brij-35 either in the presence of DMSO (final 0.2% DMSO) or compound dilution series in DMSO. After 10 minutes incubation at room temperature, a mixture Eu-W1024 Anti-6×His antibody (Perkin Elmer AD0110) and SureLight™ Allophycocyanin-Streptavidin (APC-SA, Perkin Elmer CR130-100) were added to a final concentrations of 0.2 nMolar antibody and 25 nMolar APC-SA, respectively. After twenty minutes of equilibration, the plates were read on an Envision instrument and IC50s calculated using a four parameter non-linear curve fit.
row,IC50 [µM],SMILES
1,0.44,"CN1CCC(Cc2cccc(-c3cn(C)c(=O)c4[nH]ccc34)c2)CC1 [Example 46, 6-methyl-4-[3-[(1-methyl-4-piperidyl)methyl]phenyl]-1H-pyrrolo[2,3-c]pyridin-7-one]"
2,0.063,"Cn1cc(-c2ccc(C(=O)NCc3ccccc3)cc2)c2cc[nH]c2c1=O [Example 37, N-benzyl-4-(6-methyl-7-oxo-1H-pyrrolo[2,3-c]pyridin-4-yl)benzamide]"
3,0.096,"CNC(=O)c1cccc(-c2cn(C)c(=O)c3[nH]ccc23)c1 [Example 24, N-methyl-3-(6-methyl-7-oxo-1H-pyrrolo[2,3-c]pyridin-4-yl)benzamide]"
4,0.68,"CN1CCC(c2cccc(-c3cn(C)c(=O)c4[nH]ccc34)c2)CC1 [Example 43, 6-methyl-4-[3-(1-methyl-4-piperidyl)phenyl]-1H-pyrrolo[2,3-c]pyridin-7-one]"
